From US20230107642A1 (Erasca, Inc., priority 2020, published 2023) come the findings set out here.

The target of the first test is T1, K-Ras G12C (Homo sapiens, UniProt P01116, G12C).
T1 construct: This protein contained 188 amino acids in total, including an N-terminal 6-Histidine tag; made in house; host or cells: E. coli BL21
Kind of test: CAF assay (% CAF; method in Example 7, not in this part). Type of test: binding. The note with it: 10 uM, 1 h; Table 3.
`C[C@H]1CN(C(=O)/C=C/C(F)(F)F)CCN1c1nc(=O)n2c3c(c(-c4c(F)cc(F)cc4F)c(Cl)cc13)SCC2` [Example 111, (S,E)-9-chloro-7-(2-methyl-4-(4,4,4-trifluorobut-2-enoyl)piperazin-1-yl)-10-(2,4,6-trifluorophenyl)-2,3-dihydro-5H-[1,4]thiazino[2,3,4-ij]quinazolin-5-one]: the “% CAF @ 10 uM, 1h” value worked out at 95.2%. Turning to `C[C@H]1CN(C(=O)/C=C/C(F)(F)F)CCN1c1nc(=O)n2c3c(c(-c4ccc(F)cc4F)c(Cl)cc13)SCC2` [Example 112, 9-chloro-10-(2,4-difluorophenyl)-7-((S)-2-methyl-4-((E)-4,4,4-trifluorobut-2-enoyl)piperazin-1-yl)-2,3-dihydro-5H-[1,4]thiazino[2,3,4-ij]quinazolin-5-one], the “% CAF @ 10 uM, 1h” value came out at 86.2%. As to `C=C(F)C(=O)N1CCN(c2nc(=O)n3c4c(c(-c5ccc(F)cc5F)c(Cl)cc24)SCC3)[C@@H](C)C1` [Example 113, 9-chloro-10-(2,4-difluorophenyl)-7-((S)-4-(2-fluoroacryloyl)-2-methylpiperazin-1-yl)-2,3-dihydro-5H-[1,4]thiazino[2,3,4-ij]quinazolin-5-one], the “% CAF @ 10 uM, 1h” value is given as 21.7%. `C=CC(=O)N1CCN(c2nc(=O)n3c4c(c(-c5ccc(F)cc5F)c(CC)cc24)SCC3)[C@@H](C)C1` [Example 114, 7-((S)-4-acryloyl-2-methylpiperazin-1-yl)-10-(2,4-difluorophenyl)-9-ethyl-2,3-dihydro-5H-[1,4]thiazino[2,3,4-ij]quinazolin-5-one]: the “% CAF @ 10 uM, 1h” value is reported as 92.8%. Consider `C=CC(=O)N1CCN(c2nc(=O)n3c4c(c(-c5ccc(F)cc5F)c(C)cc24)SCC3)[C@@H](C)C1` [Example 115, 7-((S)-4-acryloyl-2-methylpiperazin-1-yl)-10-(2,4-difluorophenyl)-9-methyl-2,3-dihydro-5H-[1,4]thiazino[2,3,4-ij]quinazolin-5-one], for which the “% CAF @ 10 uM, 1h” value was 94.1%. As to `C=CC(=O)N1CCN(c2nc(=O)n3c4c(c(-c5ccc(F)cc5F)c(Cl)cc24)SCC3)CC12CCNC2=O` (stereo not shown) [Example 116, 7-(6-acryloyl-1-oxo-2,6,9-triazaspiro[4.5]decan-9-yl)-9-chloro-10-(2,4-difluorophenyl)-2,3-dihydro-5H-[1,4]thiazino[2,3,4-ij]quinazolin-5-one], the “% CAF @ 10 uM, 1h” value came out at 27.4%.

As to `C=CC(=O)N1CCN(c2nc(=O)n3c4c(c(-c5ccc(F)cc5F)c(Cl)cc24)SCC3)C2CN(S(C)(=O)=O)CC21` (stereo not shown) [Example 118, 7-(4-acryloyl-6-(methylsulfonyl)octahydro-1H-pyrrolo[3,4-b]pyrazin-1-yl)-9-chloro-10-(2,4-difluorophenyl)-2,3-dihydro-5H-[1,4]thiazino[2,3,4-ij]quinazolin-5-one], the “% CAF @ 10 uM, 1h” value stood at 48.3%. Still for that read-out and setting: in the case of `C[C@H]1CN(C(=O)/C=C/C(F)F)CCN1c1nc(=O)n2c3c(c(-c4ccc(F)cc4F)c(Cl)cc13)SCC2` [Example 119, 9-chloro-7-((S)-4-((E)-4,4-difluorobut-2-enoyl)-2-methylpiperazin-1-yl)-10-(2,4-difluorophenyl)-2,3-dihydro-5H-[1,4]thiazino[2,3,4-ij]quinazolin-5-one] it was 97.1%; in that of `C[C@H]1CN(C(=O)/C=C/C(F)F)CCN1c1nc(=O)n2c3c(c(-c4c(F)cc(F)cc4F)c(Cl)cc13)SCC2` [Example 120, (S,E)-9-chloro-7-(4-(4,4-difluorobut-2-enoyl)-2-methylpiperazin-1-yl)-10-(2,4,6-trifluorophenyl)-2,3-dihydro-5H-[1,4]thiazino[2,3,4-ij]quinazolin-5-one], 95.9%.

Regarding `CN(C)C/C=C/C(=O)N1CCN(c2nc(=O)n3c4c(c(-c5ccc(F)cc5F)c(Cl)cc24)SCC3)C[C@H]1C#N` [Example 121, (2S)-4-(9-chloro-10-(2,4-difluorophenyl)-5-oxo-2,3-dihydro-5H-[1,4]thiazino[2,3,4-ij]quinazolin-7-yl)-1-((E)-4-(dimethylamino)but-2-enoyl)piperazine-2-carbonitrile], the “% CAF @ 10 uM, 1h” value is 3.6%. In the case of `C=CC(=O)N1CCN(c2nc(=O)n3c4c(c(-c5ccc(F)cc5F)c(Cl)cc24)SCC3CN2CCN(CC)CC2)[C@@H](C)C1` (stereo partly drawn) [Example 122, 7-((S)-4-acryloyl-2-methylpiperazin-1-yl)-9-chloro-10-(2,4-difluorophenyl)-3-((4-ethylpiperazin-1-yl)methyl)-2,3-dihydro-5H-[1,4]thiazino[2,3,4-ij]quinazolin-5-one], the “% CAF @ 10 uM, 1h” value stood at 80.9%. For the compound `C=C(F)C(=O)N1CCN(c2nc(=O)n3c4c(c(-c5ccc(F)cc5F)c(Cl)cc24)SCC3)C[C@H]1C#N` [Example 125, (2S)-4-(9-chloro-10-(2,4-difluorophenyl)-5-oxo-2,3-dihydro-5H-[1,4]thiazino[2,3,4-ij]quinazolin-7-yl)-1-(2-fluoroacryloyl) piperazine-2-carbonitrile], the “% CAF @ 10 uM, 1h” value is given as 94.5%. On the same count and under the same terms, in the case of `C=CC(=O)N1CCN(c2nc(=O)n3c4c(c(-c5ccc(F)cc5F)c(Cl)cc24)SCC3CN2CCN(C)CC2)[C@@H](C)C1` (stereo partly drawn) [Example 126, 7-((S)-4-acryloyl-2-methylpiperazin-1-yl)-9-chloro-10-(2,4-difluorophenyl)-3-((4-methylpiperazin-1-yl)methyl)-2,3-dihydro-5H-[1,4]thiazino[2,3,4-ij]quinazolin-5-one] it was 33.1%; in that of `C=CC(=O)N1CCN(c2nc(=O)n3c4c(c(-c5cccc6cnn(C)c56)c(Cl)cc24)SCC3)[C@@H](C)C1` [Example 127, 7-((S)-4-acryloyl-2-methylpiperazin-1-yl)-9-chloro-10-(1-methyl-1H-indazol-7-yl)-2,3-dihydro-5H-[1,4]thiazino[2,3,4-ij]quinazolin-5-one], 60%.

As to `C=CC(=O)N1CCN(c2nc(=O)n3c4c(c(-c5ccc(F)cc5F)c(Cl)cc24)SCC3)CC12CNC2=O` (stereo not shown) [Example 128, 7-(5-acryloyl-1-oxo-2,5,8-triazaspiro[3.5]nonan-8-yl)-9-chloro-10-(2,4-difluorophenyl)-2,3-dihydro-5H-[1,4]thiazino[2,3,4-ij]quinazolin-5-one], the “% CAF @ 10 uM, 1h” value was 62.7%. As for `C=CC(=O)N1C2CSCC1CN(c1nc(=O)n3c4c(c(-c5ccc(F)cc5F)c(Cl)cc14)SCC3)C2` [Example 129, 7-(9-acryloyl-3-thia-7,9-diazabicyclo[3.3.1]nonan-7-yl)-9-chloro-10-(2,4-difluorophenyl)-2,3-dihydro-5H-[1,4]thiazino[2,3,4-ij]quinazolin-5-one], the “% CAF @ 10 uM, 1h” value turned out to be 95.3%. As for `C=CC(=O)N1CCN(c2nc(=O)n3c4c(c(-c5ccc(F)cc5F)c(Cl)cc24)SC[C@H]3COC)[C@@H](C)C1` [Example 130, (3R)-7-((S)-4-acryloyl-2-methylpiperazin-1-yl)-9-chloro-10-(2,4-difluorophenyl)-3-(methoxymethyl)-2,3-dihydro-5H-[1,4]thiazino[2,3,4-ij]quinazolin-5-one], the “% CAF @ 10 uM, 1h” value stood at 94.5%. Regarding `C=CC(=O)N1CCN(c2nc(=O)n3c4c(c(-c5ccc(F)cc5F)c(Cl)cc24)SCC3)C2CS(=O)(=O)CC21` (stereo not shown) [Example 131, 7-(4-acryloyl-6,6-dioxidohexahydrothieno[3,4-b]pyrazin-1(2H)-yl)-9-chloro-10-(2,4-difluorophenyl)-2,3-dihydro-5H-[1,4]thiazino[2,3,4-ij]quinazolin-5-one], the “% CAF @ 10 uM, 1h” value amounted to 82.2%.

Still in this test, the particulars now being: 10 μM, 1 h; Table 4.
Regarding `C=CC(=O)N1CCN(c2nc(=O)n3c4c(c(-c5ccc(F)cc5F)c(Cl)cc24)SC[C@H]3COC)[C@@H](C)C1` [Example 130, (3R)-7-((S)-4-acryloyl-2-methylpiperazin-1-yl)-9-chloro-10-(2,4-difluorophenyl)-3-(methoxymethyl)-2,3-dihydro-5H-[1,4]thiazino[2,3,4-ij]quinazolin-5-one], the “% CAF @ 10 μM, 1 h” value came to 94.5%.
